Test results reported in US20240269139A1, “COMPOUNDS FOR TARGETED PROTEIN DEGRADATION OF KINASES” (DANA-FARBER CANCER INSTITUTE, INC., priority 2020, published 2024).
Like-named read-outs stand apart in the source and are kept apart here.

Tests used:
Format in all cases: cell-based
[1] = target: T1, protein kinases (human kinome) (Homo sapiens, UniProt Q9UIG0); conditions: BAZ1B (Q9UIG0)
T1 sequence (Q9UIG0 1-1483): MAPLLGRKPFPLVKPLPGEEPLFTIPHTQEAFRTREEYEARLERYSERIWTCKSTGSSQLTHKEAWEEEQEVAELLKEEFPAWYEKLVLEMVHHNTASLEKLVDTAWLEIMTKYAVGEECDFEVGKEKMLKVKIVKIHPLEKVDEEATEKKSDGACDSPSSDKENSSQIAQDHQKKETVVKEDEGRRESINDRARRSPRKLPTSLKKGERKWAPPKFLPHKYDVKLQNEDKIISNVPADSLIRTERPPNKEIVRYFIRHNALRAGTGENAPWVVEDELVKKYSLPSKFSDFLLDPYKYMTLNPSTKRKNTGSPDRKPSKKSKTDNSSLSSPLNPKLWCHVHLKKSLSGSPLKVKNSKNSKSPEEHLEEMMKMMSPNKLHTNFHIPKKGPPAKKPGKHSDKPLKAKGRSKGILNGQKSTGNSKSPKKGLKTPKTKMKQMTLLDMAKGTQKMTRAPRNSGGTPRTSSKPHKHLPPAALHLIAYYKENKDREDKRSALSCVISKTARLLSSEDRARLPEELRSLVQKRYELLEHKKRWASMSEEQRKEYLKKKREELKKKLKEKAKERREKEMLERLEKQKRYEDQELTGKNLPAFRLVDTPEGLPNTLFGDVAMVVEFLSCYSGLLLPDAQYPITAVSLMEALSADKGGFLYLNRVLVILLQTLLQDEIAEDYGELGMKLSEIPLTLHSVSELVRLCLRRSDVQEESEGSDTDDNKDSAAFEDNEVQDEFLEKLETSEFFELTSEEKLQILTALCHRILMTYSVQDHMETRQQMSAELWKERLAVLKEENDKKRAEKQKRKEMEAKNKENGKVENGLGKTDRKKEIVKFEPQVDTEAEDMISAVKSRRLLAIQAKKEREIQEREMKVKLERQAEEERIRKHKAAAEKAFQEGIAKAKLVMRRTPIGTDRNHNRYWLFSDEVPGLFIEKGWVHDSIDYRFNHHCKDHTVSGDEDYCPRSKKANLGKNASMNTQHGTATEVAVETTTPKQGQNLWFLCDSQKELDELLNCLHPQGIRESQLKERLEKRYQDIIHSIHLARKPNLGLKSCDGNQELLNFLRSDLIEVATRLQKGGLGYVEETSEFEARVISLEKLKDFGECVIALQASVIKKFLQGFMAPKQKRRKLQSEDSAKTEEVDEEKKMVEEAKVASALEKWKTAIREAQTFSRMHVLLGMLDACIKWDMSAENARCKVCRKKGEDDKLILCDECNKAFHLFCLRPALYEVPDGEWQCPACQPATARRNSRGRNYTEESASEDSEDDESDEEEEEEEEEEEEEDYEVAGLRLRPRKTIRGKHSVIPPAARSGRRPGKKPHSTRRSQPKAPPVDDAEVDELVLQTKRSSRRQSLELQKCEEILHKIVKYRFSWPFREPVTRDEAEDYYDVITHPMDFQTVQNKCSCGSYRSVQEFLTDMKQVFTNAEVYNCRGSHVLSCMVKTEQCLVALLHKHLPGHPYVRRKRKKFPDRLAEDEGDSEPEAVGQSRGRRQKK

[2] = target: protein kinases (human kinome) (Homo sapiens, UniProt O14874); conditions: BCKDK (O14874)
[3] = target: T2, protein kinases (human kinome) (Homo sapiens, UniProt Q9NRH2); conditions: for logFC: SNRK (Q9NRH2)
T2 sequence (Q9NRH2 1-765): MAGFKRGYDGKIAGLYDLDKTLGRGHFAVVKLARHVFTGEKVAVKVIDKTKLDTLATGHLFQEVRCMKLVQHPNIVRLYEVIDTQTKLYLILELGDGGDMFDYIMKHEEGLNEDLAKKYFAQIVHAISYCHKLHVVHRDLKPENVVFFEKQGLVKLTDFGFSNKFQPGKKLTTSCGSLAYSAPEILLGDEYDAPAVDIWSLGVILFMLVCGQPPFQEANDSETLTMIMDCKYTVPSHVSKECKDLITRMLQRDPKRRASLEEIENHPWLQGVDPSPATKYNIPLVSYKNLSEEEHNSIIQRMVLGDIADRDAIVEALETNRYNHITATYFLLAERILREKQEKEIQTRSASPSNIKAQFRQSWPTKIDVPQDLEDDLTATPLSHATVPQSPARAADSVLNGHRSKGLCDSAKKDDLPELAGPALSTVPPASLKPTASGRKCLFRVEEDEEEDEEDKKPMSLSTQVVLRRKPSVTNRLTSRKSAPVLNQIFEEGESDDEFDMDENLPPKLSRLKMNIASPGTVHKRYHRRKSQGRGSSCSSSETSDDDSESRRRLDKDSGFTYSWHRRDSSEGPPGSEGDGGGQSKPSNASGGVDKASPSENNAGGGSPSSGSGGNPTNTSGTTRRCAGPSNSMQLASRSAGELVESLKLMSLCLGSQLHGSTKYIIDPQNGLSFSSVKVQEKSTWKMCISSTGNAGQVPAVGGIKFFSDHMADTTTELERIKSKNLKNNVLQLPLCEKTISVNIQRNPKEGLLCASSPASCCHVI

[4] = target: protein kinases (human kinome) (Homo sapiens, UniProt P06241); conditions: for logFC: FYN (P06241-1), direction down
protein kinases (human kinome) (Homo sapiens, UniProt P06241), sequence (P06241 whole entry): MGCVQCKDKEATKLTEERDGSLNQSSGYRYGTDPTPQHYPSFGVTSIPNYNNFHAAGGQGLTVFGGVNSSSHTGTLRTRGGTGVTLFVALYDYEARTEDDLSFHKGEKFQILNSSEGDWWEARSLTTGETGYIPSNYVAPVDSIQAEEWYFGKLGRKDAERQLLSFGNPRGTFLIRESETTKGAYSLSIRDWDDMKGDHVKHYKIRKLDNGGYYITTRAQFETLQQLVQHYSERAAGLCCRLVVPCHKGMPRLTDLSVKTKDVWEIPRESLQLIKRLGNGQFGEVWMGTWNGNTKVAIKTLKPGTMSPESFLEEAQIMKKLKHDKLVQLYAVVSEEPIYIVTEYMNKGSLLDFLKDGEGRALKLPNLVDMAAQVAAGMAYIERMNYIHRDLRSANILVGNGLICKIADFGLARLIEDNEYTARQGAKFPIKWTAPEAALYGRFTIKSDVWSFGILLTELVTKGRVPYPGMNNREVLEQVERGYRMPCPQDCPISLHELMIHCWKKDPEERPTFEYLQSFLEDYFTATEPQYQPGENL

[5] = experiment wp084, direction down
[6] = Accession P06241-1, experiment wp105
[7] = experiment wp147, 4 uM, direction down
[8] = Accession P06241-1, experiment wp107

For `CC(=O)c1c(C)c2cnc(Nc3ccc(N4CCN(CCOCCOCCOCCNC(=O)COc5cccc6c5C(=O)N(C5CCC(=O)NC5=O)C6=O)CC4)cn3)nc2n(C2CCCC2)c1=O` (stereo not shown) [BSJ.03.123], which logFC ([1]; experiment wp084) is on record?
Its logFC is −0.3532.

And the logFC ([2]; experiment wp084)?
Its logFC is −0.4553.

And the logFC [2, 5]?
The logFC was −0.4553.

Which results are given for `CN(C)C(=O)c1cc2cnc(Nc3ccc(N4CCN(CCCCNC(=O)COc5cccc6c5C(=O)N(C5CCC(=O)NC5=O)C6=O)CC4)cn3)nc2n1C1CCCC1` (stereo not shown) [BSJ.04.132]?
logFC ([1]; experiment wp084): −0.3222; logFC ([2]; experiment wp084): −0.5188; logFC [2, 5]: −0.5188

`O=C(COc1cccc2c1C(=O)N(C1CCC(=O)NC1=O)C2=O)NCCCCCCCN1CCc2cc(Nc3ncc(C4CC4)c(NCCCNC(=O)C4CCC4)n3)ccc2C1` (stereo not shown) [BSJ.04.178] was tested. Which logFC ([3]; experiment wp134) did it give?
The logFC was −1.523.

And the “logFC of SNRK (Q9NRH2)” value ([3]; experiment wp134)?
Its value is −1.523.

With `Cc1ncsc1-c1ccc([C@H](C)NC(=O)[C@@H]2C[C@@H](O)CN2C(=O)[C@@H](NC(=O)CCCCCN2CCc3cc(Nc4ncc(C5CC5)c(NCCCNC(=O)C5CCC5)n4)ccc3C2)C(C)(C)C)cc1` [BSJ.05.026] as the compound, how does the “logFC of SNRK (Q9NRH2)” value ([3]; Experiment wp195) read?
The value was −1.856.

What about the logFC ([3]; experiment wp195) of the same compound?
The logFC was −1.856.

What does the source list for `Cc1ccc(NC(=O)c2cccc(C(F)(F)F)c2)cc1N1Cc2cnc(Nc3ccc(N4CCN(Cc5cn(CCCCCOc6cccc7c6C(=O)N(C6CCC(=O)NC6=O)C7=O)nn5)CC4)nc3)nc2N(C)C1=O` (stereo not shown) [DB0646, N-(3-(7-((6-(4-((1-(5-((2-(2,6-Dioxopiperidin-3-yl)-1,3-dioxoisoindolin-4-yl)oxy)pentyl)-1H-1,2,3-triazol-4-yl)methyl)piperazin-1-v)pyridin-3-yl)amino)-1-methyl-2-oxo-1,4-dihydropyrimido[4,5-d]pyrimidin-3(2H)-yl)-4-methylphenyl)-3-(trifluoromethyl)benzamide]?
logFC FYN [4, 6]: −0.4621; logFC FYN ([4]; Accession P06241, experiment wp152): −0.3685; logFC FYN (P06241) ([4]; Experiment wp152, direction of change down): −0.3685; logFC ([4]; experiment wp105): −0.4621

What does the source list for `CC(C)(C)c1nc(-c2cccc(NS(=O)(=O)c3c(F)cccc3F)c2F)c(-c2ccnc(NCCOCCNC(=O)CCOCCOCCNc3cccc4c3C(=O)N(C3CCC(=O)NC3=O)C4=O)n2)s1` (stereo not shown) [DD.03.106]?
logFC ([2]; experiment wp137): −0.3275; logFC ([2]; experiment wp137, direction down): −0.3275; logFC ([2]; experiment wp147, 4 uM): −0.5831; logFC [2, 7]: −0.5831

How did the logFC ([1]; experiment wp147, 4 uM) turn out when `CC(C)(C)c1nc(-c2cccc(NS(=O)(=O)c3c(F)cccc3F)c2F)c(-c2ccnc(NCCOCCNC(=O)CCOCCOCCNc3cccc4c3CN(C3CCC(=O)NC3=O)C4=O)n2)s1` (stereo not shown) [DD.03.107] was run?
The logFC was −0.3418.

And the logFC ([2]; experiment wp147, 4 uM)?
Its logFC is −1.113.

What about the logFC [2, 7] of the same compound?
The logFC was −1.113.

`Cc1cnc(Nc2ccc(N3CCN(CCCCCCC(=O)N[C@H](C(=O)N4C[C@H](O)C[C@H]4C(=O)N[C@@H](C)c4ccc(-c5scnc5C)cc4)C(C)(C)C)CC3)cc2)nc1Nc1cccc(S(=O)(=O)NC(C)(C)C)c1` [JWG.123] was tested. Which “logFC of SNRK (Q9NRH2)” value ([3]; Experiment wp195) did it give?
Its value is −1.197.

What about the logFC ([3]; experiment wp195) of the same compound?
Its logFC is −1.197.

Which logFC ([1]; experiment wp080) does the source give for `Cc1ncsc1-c1ccc([C@H](C)NC(=O)[C@@H]2C[C@@H](O)CN2C(=O)[C@@H](NC(=O)CCCCCN2CCN(c3ccc(Nc4ncc5scc(-c6cccc(NS(C)(=O)=O)c6)c5n4)cc3)CC2)C(C)(C)C)cc1` [RSS0680, (2S,4R)-1-((S)-3,3-Dimethyl-2-(6-(4-(4-((7-(3-(methylsulfonamido)phenyl)thieno[3,2-d]pyrimidin-2-yl)amino)phenyl)piperazin-1-yl)hexanamido)butanoyl)-4-hydroxy-N—((S)-1-(4-(4-methylthiazol-5yl)phenyl)ethyl)pyrrolidine-2-carboxamide] here?
The logFC was −0.4061.

And the “logFC of SNRK (Q9NRH2)” value ([3]; Experiment wp117)?
The value was −0.6321.

And the logFC ([3]; experiment wp080)?
The logFC was −0.5567.

And the logFC ([3]; experiment wp117)?
The logFC was −0.6321.

What about the “logFC of SNRK (Q9NRH2)” value ([3]; experiment wp080) of the same compound?
The value was −0.5567.

`Cc1ccc(C(=O)Nc2ccc(CN3CCN(CCCOCCOCCOCCNC(=O)COc4cccc5c4C(=O)N(C4CCC(=O)NC4=O)C5=O)CC3)c(C(F)(F)F)c2)cc1C#Cc1cnc2cccnn12` (stereo not shown) [SB1.G.187] was tested. Which “logFC FYN” value [4, 6] did it give?
Its value is −0.7697.

What about the “logFC FYN” value [4, 8] of the same compound?
Its value is −0.3601.

And the logFC ([4]; experiment wp105)?
The logFC was −0.7697.

And the logFC ([4]; experiment wp107)?
The logFC was −0.3601.

Which results are given for `Cn1c(=O)c(-c2c(Cl)cccc2Cl)cc2cnc(Nc3ccc(OCCNC(=O)CCCCCCNC(=O)COc4cccc5c4C(=O)N(C4CCC(=O)NC4=O)C5=O)cc3)nc21` (stereo not shown) [SB1.G.192.1]?
logFC FYN ([4]; Accession P06241-1, experiment wp081): −0.9314; logFC ([4]; experiment wp081): −0.9314

How did the logFC ([2]; experiment wp160, 1 hr) turn out when `CC(C)S(=O)(=O)c1ccccc1Nc1nc(Nc2ccc(N3CCN(CCOCCNC(=O)CNc4cccc5c4C(=O)N(C4CCC(=O)NC4=O)C5=O)CC3)cc2)ncc1Cl` (stereo not shown) [SK.3.91] was run?
The logFC was −0.8683.

And the logFC ([2]; experiment wp160, 1 hr, direction down)?
Its logFC is −0.8683.

And the “logFC FYN” value [4, 6]?
Its value is −0.3586.

And the “logFC FYN” value [4, 8]?
Its value is −0.4288.

And the logFC ([4]; experiment wp105)?
The logFC was −0.3586.

And the logFC ([4]; experiment wp107)?
Its logFC is −0.4288.
